# Measured values from ChEMBL document CHEMBL3991601, “The target landscape of clinical kinase drugs” (Science, 2017).
# Active and inactive are the calls of the source.
# Key:
# [1] = molecular target: T1, Tyrosine--tRNA ligase, cytoplasmic (Homo sapiens, UniProt P54577)
# T1 sequence (P54577 whole entry): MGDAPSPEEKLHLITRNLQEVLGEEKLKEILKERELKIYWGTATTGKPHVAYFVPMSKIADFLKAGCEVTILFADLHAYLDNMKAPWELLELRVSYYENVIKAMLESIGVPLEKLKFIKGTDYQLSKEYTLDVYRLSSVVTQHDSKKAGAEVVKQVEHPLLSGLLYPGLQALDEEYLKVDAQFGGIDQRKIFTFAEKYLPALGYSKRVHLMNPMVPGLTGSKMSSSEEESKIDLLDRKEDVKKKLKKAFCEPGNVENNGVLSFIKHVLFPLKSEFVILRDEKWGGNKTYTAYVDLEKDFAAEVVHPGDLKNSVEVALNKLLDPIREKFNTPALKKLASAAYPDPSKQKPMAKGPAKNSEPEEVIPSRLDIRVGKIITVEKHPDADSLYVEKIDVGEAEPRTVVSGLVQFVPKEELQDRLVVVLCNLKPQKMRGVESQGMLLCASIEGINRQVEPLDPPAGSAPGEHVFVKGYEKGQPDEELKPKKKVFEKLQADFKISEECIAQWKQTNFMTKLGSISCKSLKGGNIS
# [2] = molecular target: Mitogen-activated protein kinase 11 (Homo sapiens, UniProt Q15759)
# [3] = molecular target: RAC-alpha serine/threonine-protein kinase (Homo sapiens, UniProt P31749)
# [4] = molecular target: T2, Succinate--CoA ligase [ADP-forming] subunit beta, mitochondrial (Homo sapiens, UniProt Q9P2R7)
# T2 sequence (Q9P2R7 whole entry): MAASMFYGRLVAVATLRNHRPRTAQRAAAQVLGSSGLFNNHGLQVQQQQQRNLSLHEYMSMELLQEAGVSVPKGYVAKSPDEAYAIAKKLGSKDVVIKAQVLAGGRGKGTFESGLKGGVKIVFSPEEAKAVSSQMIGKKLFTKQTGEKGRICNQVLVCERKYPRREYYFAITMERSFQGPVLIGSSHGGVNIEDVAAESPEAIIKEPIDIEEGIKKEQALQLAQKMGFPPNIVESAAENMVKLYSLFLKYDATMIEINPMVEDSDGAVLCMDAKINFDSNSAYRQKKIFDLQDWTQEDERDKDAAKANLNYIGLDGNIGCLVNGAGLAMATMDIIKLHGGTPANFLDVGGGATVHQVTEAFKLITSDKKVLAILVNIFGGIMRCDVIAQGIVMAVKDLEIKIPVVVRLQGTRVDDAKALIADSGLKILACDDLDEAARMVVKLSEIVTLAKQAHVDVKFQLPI
# [5] = molecular target: Epithelial discoidin domain-containing receptor 1 (Homo sapiens, UniProt Q08345)
# Heme oxygenase 2 = molecular target: T3, Heme oxygenase 2 (Homo sapiens, UniProt P30519)
# T3 sequence (P30519 whole entry): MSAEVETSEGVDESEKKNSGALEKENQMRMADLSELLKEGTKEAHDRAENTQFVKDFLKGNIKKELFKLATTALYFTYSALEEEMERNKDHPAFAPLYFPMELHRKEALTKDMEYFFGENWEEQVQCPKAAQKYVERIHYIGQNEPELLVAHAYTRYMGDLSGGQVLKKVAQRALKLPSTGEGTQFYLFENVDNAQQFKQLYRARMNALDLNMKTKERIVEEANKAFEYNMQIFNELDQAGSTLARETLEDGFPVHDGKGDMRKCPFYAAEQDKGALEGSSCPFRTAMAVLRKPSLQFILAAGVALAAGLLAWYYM
# [6] = molecular target: T4, Serine/threonine-protein kinase ULK1 (Homo sapiens, UniProt O75385)
# T4 sequence (O75385 whole entry): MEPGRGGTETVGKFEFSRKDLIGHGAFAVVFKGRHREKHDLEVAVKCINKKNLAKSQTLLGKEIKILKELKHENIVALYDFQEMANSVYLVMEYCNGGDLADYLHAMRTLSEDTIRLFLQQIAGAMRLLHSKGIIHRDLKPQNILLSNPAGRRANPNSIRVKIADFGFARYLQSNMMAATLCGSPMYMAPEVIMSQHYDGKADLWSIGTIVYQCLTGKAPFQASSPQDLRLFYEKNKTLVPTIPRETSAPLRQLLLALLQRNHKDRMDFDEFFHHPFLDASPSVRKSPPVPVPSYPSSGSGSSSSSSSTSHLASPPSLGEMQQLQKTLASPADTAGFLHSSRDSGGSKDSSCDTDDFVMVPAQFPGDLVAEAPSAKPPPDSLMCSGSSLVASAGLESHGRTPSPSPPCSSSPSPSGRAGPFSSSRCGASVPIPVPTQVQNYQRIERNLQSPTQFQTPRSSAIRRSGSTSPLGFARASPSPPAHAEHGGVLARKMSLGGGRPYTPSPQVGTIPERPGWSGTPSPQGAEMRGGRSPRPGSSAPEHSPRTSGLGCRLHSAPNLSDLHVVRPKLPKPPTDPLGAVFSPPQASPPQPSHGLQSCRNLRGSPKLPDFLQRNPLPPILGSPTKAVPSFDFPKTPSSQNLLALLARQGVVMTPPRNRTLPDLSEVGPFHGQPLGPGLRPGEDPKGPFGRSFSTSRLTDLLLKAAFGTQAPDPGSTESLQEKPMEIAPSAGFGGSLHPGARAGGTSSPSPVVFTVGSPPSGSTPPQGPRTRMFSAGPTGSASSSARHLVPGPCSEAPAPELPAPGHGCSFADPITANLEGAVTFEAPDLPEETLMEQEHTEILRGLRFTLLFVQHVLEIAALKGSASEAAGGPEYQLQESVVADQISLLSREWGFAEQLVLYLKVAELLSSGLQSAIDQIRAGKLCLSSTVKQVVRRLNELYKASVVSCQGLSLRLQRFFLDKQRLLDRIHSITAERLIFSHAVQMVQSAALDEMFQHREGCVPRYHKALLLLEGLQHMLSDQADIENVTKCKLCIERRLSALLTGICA
# Note: in the data inactive means no Kd found up to 30 µM.
# Chain of RAC-alpha serine/threonine-protein kinase (P31749 whole entry): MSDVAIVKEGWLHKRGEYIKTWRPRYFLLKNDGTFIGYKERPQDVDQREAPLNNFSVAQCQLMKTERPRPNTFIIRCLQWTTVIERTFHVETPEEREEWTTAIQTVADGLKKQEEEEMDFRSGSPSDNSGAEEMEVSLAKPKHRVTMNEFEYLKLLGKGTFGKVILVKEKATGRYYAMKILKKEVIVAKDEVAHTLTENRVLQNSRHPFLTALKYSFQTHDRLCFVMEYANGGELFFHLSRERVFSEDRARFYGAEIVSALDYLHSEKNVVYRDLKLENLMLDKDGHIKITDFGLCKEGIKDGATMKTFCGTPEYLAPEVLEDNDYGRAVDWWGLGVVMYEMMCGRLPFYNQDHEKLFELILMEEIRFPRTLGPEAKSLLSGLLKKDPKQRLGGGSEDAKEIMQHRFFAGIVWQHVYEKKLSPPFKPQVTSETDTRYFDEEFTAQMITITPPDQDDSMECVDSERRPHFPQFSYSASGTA
# Chain of Mitogen-activated protein kinase 11 (Q15759 whole entry): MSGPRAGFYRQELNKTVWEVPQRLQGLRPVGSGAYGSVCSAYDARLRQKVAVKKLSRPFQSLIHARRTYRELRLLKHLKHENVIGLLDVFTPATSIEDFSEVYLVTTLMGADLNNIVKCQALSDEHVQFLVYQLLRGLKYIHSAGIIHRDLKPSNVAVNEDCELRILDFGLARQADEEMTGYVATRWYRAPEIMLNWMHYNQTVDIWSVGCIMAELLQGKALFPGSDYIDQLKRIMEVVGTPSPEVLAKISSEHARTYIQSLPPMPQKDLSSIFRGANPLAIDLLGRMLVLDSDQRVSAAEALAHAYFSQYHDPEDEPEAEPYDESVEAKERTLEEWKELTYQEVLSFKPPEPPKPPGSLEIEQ
# Chain of Epithelial discoidin domain-containing receptor 1 (Q08345 whole entry, the tested form may be a part): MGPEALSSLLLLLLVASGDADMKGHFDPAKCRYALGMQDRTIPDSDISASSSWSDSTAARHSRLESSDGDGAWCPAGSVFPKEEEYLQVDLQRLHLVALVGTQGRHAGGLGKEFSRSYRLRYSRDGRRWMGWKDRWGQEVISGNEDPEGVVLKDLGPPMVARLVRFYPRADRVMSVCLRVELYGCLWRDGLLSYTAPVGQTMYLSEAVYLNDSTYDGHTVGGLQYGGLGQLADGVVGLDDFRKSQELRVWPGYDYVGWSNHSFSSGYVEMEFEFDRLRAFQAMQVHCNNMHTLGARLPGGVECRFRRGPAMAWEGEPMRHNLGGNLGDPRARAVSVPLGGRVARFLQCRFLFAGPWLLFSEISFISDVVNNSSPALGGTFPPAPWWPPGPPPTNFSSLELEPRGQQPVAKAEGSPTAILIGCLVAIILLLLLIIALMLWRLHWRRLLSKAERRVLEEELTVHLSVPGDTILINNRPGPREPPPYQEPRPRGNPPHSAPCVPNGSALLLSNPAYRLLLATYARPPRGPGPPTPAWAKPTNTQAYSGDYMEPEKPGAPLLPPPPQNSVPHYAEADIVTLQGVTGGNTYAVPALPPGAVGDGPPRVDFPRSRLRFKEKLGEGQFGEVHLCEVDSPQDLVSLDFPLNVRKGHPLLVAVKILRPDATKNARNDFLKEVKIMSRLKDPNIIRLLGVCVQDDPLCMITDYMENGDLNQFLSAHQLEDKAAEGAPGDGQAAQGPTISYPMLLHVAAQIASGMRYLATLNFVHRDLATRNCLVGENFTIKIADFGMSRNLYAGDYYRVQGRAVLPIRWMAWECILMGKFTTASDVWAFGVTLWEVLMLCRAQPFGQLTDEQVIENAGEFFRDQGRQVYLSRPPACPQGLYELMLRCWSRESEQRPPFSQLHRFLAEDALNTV
SMILES,Kd [1],Kd [2],Kd [3],Kd [4],Kd [5],Kd (Heme oxygenase 2),Kd [6]
O=C(c1ccc(F)c(F)c1Nc1ccc(I)cc1F)N1CC(O)([C@@H]2CCCCN2)C1 [COBIMETINIB],> 30 µM (inactive),> 30 µM (inactive),> 30 µM (inactive),> 30 µM (inactive),> 30 µM (inactive),> 30 µM (inactive),> 30 µM (inactive)
COc1cc(N2CCC(N3CCN(C)CC3)CC2)ccc1Nc1ncnc(Nc2ccccc2S(=O)(=O)C(C)C)n1 [ASP-3026],> 30 µM (inactive),> 30 µM (inactive),> 30 µM (inactive),> 30 µM (inactive),4.04 µM (active),> 30 µM (inactive),> 30 µM (inactive)
O=c1sn(-c2cccc3ccccc23)c(=O)n1Cc1ccccc1 [TIDEGLUSIB],> 30 µM (inactive),> 30 µM (inactive),> 30 µM (inactive),> 30 µM (inactive),> 30 µM (inactive),> 30 µM (inactive),> 30 µM (inactive)
CNS(=O)(=O)Nc1nccc(Cc2c(C)c3ccc(Oc4ncccn4)cc3oc2=O)c1F [AVUTOMETINIB],> 30 µM (inactive),> 30 µM (inactive),> 30 µM (inactive),> 30 µM (inactive),> 30 µM (inactive),> 30 µM (inactive),> 30 µM (inactive)
C[C@@H](Nc1cc(F)cc(F)c1)c1cc(C(=O)N(C)C)cc2c(=O)cc(N3CCOCC3)oc12 [AZD-8186],> 30 µM (inactive),> 30 µM (inactive),> 30 µM (inactive),> 30 µM (inactive),> 30 µM (inactive),> 30 µM (inactive),> 30 µM (inactive)
Cc1ccc(S(=O)(=O)Nc2nc3ccccc3nc2Nc2ccc3nsnc3c2)cc1,> 30 µM (inactive),> 30 µM (inactive),> 30 µM (inactive),> 30 µM (inactive),> 30 µM (inactive),> 30 µM (inactive),> 30 µM (inactive)
CN1CCC(CNc2ccc3ncc(-c4cccc(OC(F)(F)F)c4)n3n2)CC1 [SGI-1776],> 30 µM (inactive),> 30 µM (inactive),> 30 µM (inactive),> 30 µM (inactive),> 30 µM (inactive),> 30 µM (inactive),> 30 µM (inactive)
CCCS(=O)(=O)Nc1ccc(F)c(C(=O)c2c[nH]c3ncc(-c4ccc(Cl)cc4)cc23)c1F [VEMURAFENIB],> 30 µM (inactive),> 30 µM (inactive),> 30 µM (inactive),> 30 µM (inactive),> 30 µM (inactive),> 30 µM (inactive),> 30 µM (inactive)
C=CC(=O)N1CCC(Oc2cc3c(Nc4ccc(Cl)c(Cl)c4F)ncnc3cc2OC)CC1 [POZIOTINIB],> 30 µM (inactive),> 30 µM (inactive),> 30 µM (inactive),> 30 µM (inactive),> 30 µM (inactive),> 30 µM (inactive),> 30 µM (inactive)
